{
  "source": "patent US9663528B2",
  "about": "“Substituted 1,2,3,4,6,8,12,12a-octahydro-1,4-methanodipyrido[1,2-a:1',2'-d]pyrazines and methods for treating viral infections” (priority 2012, dated 2017)",
  "test": "in vitro",
  "settings": "human",
  "protocol": "For the antiviral assay utilizing MT4 cells, 0.4 μL of […] test concentration of 3-fold serially diluted compound in DMSO was added to 40 μL of cell growth medium (RPMI 1640, 10% FBS, 1% penicilline/Streptomycine, 1% L-Glutamine, 1% HEPES) in each well of 384-well assay plates (10 concentrations) in quidruplicate.\n1 mL aliquots of 2×10^6 MT4 cells are pre-infected for 1 and 3 hours respectively at 37° C. with 25 μL (MT4) or of either cell growth medium (mock-infected) or a fresh 1:250 dilution of an HIV-IIIb concentrated ABI stock (0.004 m.o.i. for MT4 cells). Infected and uninfected cells are diluted in cell growth medium and 35 μL of 2000 (for MT4) cells is added to each well of the assay plates.\nAssay plates were then incubated in a 37° C. incubator. After 5 days of incubation, 25 μL of 2× concentrated CellTiter-Glo™ Reagent (catalog #G7573, Promega Biosciences, Inc., Madison, Wis.) was added to each well of the assay plate. Cell lysis was carried out by incubating at room temperature for 2-3 minutes, and then chemiluminescence was read using the Envision reader (PerkinElmer).",
  "data": [
    {"smiles": "O=C(NCc1ncc(F)cc1F)c1cn2c(c(O)c1=O)C(=O)N1[C@H]3CC[C@H](C3)[C@@H]1C2", "note": "[Compound 76, (1R,4S,12aR)-N-((3,5-difluoropyridin-2-yl)methyl)-7-hydroxy-6,8-dioxo-1,2,3,4,6,8,12,12a-octahydro-1,4-methanodipyrido[1,2-a:1′,2′-d]pyrazine-9-carboxamide]", "values": [
      {"measurement": "CC50 at 5 days", "setting": "CC50 nM in MT-4", "value": 34600, "unit": "nM"}
    ]},
    {"smiles": "O=C(NC1(c2ccc(F)cc2F)CCCCC1)c1cn2c(c(O)c1=O)C(=O)N1C(C2)O[C@H]2CC[C@@H]1C2", "note": "(stereo partly drawn) [Compound 34, (2S,5R)-N-(1-(2,4-difluorophenyl)cyclohexyl)-8-hydroxy-7,9-dioxo-2,3,4,5,7,9,13,13a-octahydro-2,5-methanopyrido[1′,2′:4,5]pyrazino[2,1-b][1,3]oxazepine-10-carboxamide]", "values": [
      {"measurement": "CC50 at 5 days", "value": 3580, "unit": "nM"}
    ]},
    {"smiles": "O=C(NCc1ccc(F)cc1OC1CC1)c1cn2c(c(O)c1=O)C(=O)N1[C@H]3CC[C@H](C3)O[C@@H]1C2", "note": "[Compound 53, (2R,5S,13aR)-N-(2-cyclopropoxy-4-fluorobenzyl)-8-hydroxy-7,9-dioxo-2,3,4,5,7,9,13,13a-octahydro-2,5-methanopyrido[1′,2′:4,5]pyrazino[2,1-b][1,3]oxazepine-10-carboxamide]", "values": [
      {"measurement": "CC50 at 5 days", "setting": "CC50 nM in MT-4", "value": 3350, "unit": "nM"}
    ]},
    {"smiles": "O=C(NC1(c2ccc(F)cc2F)CC1)c1cn2c(c(O)c1=O)C(=O)N1C(C2)O[C@H]2CC[C@@H]1C2", "note": "(stereo partly drawn) [Compound 27, (2S,5R)-N-(1-(2,4-difluorophenyl)cyclopropyl)-8-hydroxy-7,9-dioxo-2,3,4,5,7,9,13,13a-octahydro-2,5-methanopyrido[1′,2′:4,5]pyrazino[2,1-b][1,3]oxazepine-10-carboxamide]", "values": [
      {"measurement": "CC50 at 5 days", "setting": "CC50 nM in MT-4", "value": 8750, "unit": "nM"}
    ]},
    {"smiles": "O=C(NCc1ccc(F)cc1OC1CC1)c1cn2c(c(O)c1=O)C(=O)N1[C@@H]3CC[C@@H](C3)O[C@H]1C2", "note": "[Compound 52, (2S,5R,13aS)-N-(2-cyclopropoxy-4-fluorobenzyl)-8-hydroxy-7,9-dioxo-2,3,4,5,7,9,13,13a-octahydro-2,5-methanopyrido[1′,2′:4,5]pyrazino[2,1-b][1,3]oxazepine-10-carboxamide]", "values": [
      {"measurement": "CC50 at 5 days", "setting": "CC50 nM in MT-4", "value": 12900, "unit": "nM"}
    ]},
    {"smiles": "O=C(NCc1ccccc1)c1cn2c(c(O)c1=O)C(=O)N1[C@H]3CC[C@H](C3)[C@@H]1C2", "note": "[Compound 94, (1R,4S,12aR)-N-benzyl-7-hydroxy-6,8-dioxo-1,2,3,4,6,8,12,12a-octahydro-1,4-methanodipyrido[1,2-a:1′,2′-d]pyrazine-9-carboxamide]", "values": [
      {"measurement": "CC50 at 5 days", "setting": "CC50 nM in MT-4", "value": 51200, "unit": "nM"}
    ]},
    {"smiles": "O=C(NC1(c2ccc(F)cc2F)CC1)c1cn2c(c(O)c1=O)C(=O)N1C(C2)O[C@@H]2CC[C@H]1C2", "note": "(stereo partly drawn) [Compound 31, (2R,5S)-N-(1-(2,4-difluorophenyl)cyclopropyl)-8-hydroxy-7,9-dioxo-2,3,4,5,7,9,13,13a-octahydro-2,5-methanopyrido[1′,2′:4,5]pyrazino[2,1-b][1,3]oxazepine-10-carboxamide]", "values": [
      {"measurement": "CC50 at 5 days", "setting": "CC50 nM in MT-4", "value": 4520, "unit": "nM"}
    ]},
    {"smiles": "C[C@H](NC(=O)c1cn2c(c(O)c1=O)C(=O)N1[C@H]3CC[C@H](C3)O[C@@H]1C2)c1ccc(F)cc1F", "note": "[Compound 14, (2R,5S,13aR)-N—((S)-1-(2,4-difluorophenyl)ethyl)-8-hydroxy-7,9-dioxo-2,3,4,5,7,9,13,13a-octahydro-2,5-methanopyrido[1′,2′:4,5]pyrazino[2,1-b][1,3]oxazepine-10-carboxamide]", "values": [
      {"measurement": "CC50 at 5 days", "setting": "CC50 nM in MT-4", "value": 4940, "unit": "nM"}
    ]},
    {"smiles": "C[C@@H](NC(=O)c1cn2c(c(O)c1=O)C(=O)N1[C@@H]3CC[C@H](C3)O[C@@H]1C2)c1c(F)cc(F)cc1F", "note": "[Compound 78, (2R,13aR)-8-hydroxy-7,9-dioxo-N—((R)-1-(2,4,6-trifluorophenyl)ethyl)-2,3,4,5,7,9,13,13a-octahydro-2,5-methanopyrido[1′,2′:4,5]pyrazino[2,1-b][1,3]oxazepine-10-carboxamide]", "values": [
      {"measurement": "CC50 at 5 days", "setting": "CC50 nM in MT-4", "value": 3200, "unit": "nM"}
    ]}
  ]
}
